Source: patent US12186328B2, “Use of CSA compounds to stimulate stem cells and hair growth” (Brigham Young University, priority 2019, dated 2025)

Key:
[1] = test system: hair growth on depilated dorsal skin of C57BL/6 mice; assay: Mouse model of hair regrowth after shaving and depilation, topical CSA-44 cream; type: in vivo, mice (C57BL/6); conditions: for Percentage Change in Hair growth: Day 21, compared with vehicle treated control group; for Hair growth scoring Day 1 / Hair growth scoring Day 3 / Hair growth scoring Day 7 / Hair growth scoring Day 10 / Hair growth scoring Day 14 / Hair growth scoring Day 17: Mean ± SE, n = 8, score 0-10
Text: A mouse model was used to test the effectiveness of a CSA-based treatment composition in stimulating stem cells and regenerating hair growth. Male C57BL/6 mice aged 8 weeks, were housed under environmentally monitored conditions and were fed a standard rodent diet. The hair on the dorsal surface of each mouse was shaved with an animal clipper, which was then followed by application of a depilatory cream to clean the remaining hair as described by Jung M K et al (Life Sci. 2015 May 1; 128:39-46). The mice were then allowed to rest for 24 h.
On the day of experiment, all the animals were weighed and randomized into different treatment groups (n=8) according to body weight. Randomized animals were identified by individual animal marking and cage cards were used for group identification.
The animals of Group 1, the control mice, were treated topically with the cream-based vehicle. The animals of Group 2 were treated topically with 100 mg of […] once daily for 3 weeks. The animals in Group 3 were treated topically with 100 mg of 2.0% CSA-44 test compound once every other day for 3 weeks.
A preliminary tolerability study was conducted in C57BL/6 mice for selecting an appropriate well tolerated dose for the present efficacy study. Based on the results from the preliminary dose tolerability study, 100 mg of a formulation containing 0.5% CSA-44 was uniformly applied topically on the shaven areas of the dorsal skin once daily for 3 weeks. Similarly, 100 mg of 2% CSA-44 formulation was applied topically every other day for 3 weeks. 100 mg of cream vehicle was applied topically on the shaved areas once daily for 3 weeks.
The hair-growth score was evaluated using the scoring pattern below as described by Vegesna et al (Endocrinology 143(11):4389-4396). A score of ‘0’ indicates no change in the amount of hair growth compared with the hair-loss induction day and a score of ‘10’ indicates full hair growth on the entire site on the dorsal skin. Darkening and hair-growth rate was monitored twice weekly for 3 weeks. Images of the dorsal skin of the mice were captured using a digital camera at weekly intervals to notice the start of hair regrowth period and the hair regrowth pattern.
Body weight of the animals were recorded once prior to randomization (pre dose) and twice weekly during the course of the study. All animals were observed once daily for clinical signs and twice daily (morning and evening) for mortality and morbidity. No mortality was observed during the study period. Animals were sacrificed at the end of the study period by following a standard protocol using CO2 induced euthanasia. Results
Hair growth score and body weight were recorded twice weekly during the study period. The percentage (%) change in hair growth was calculated on Day 21 by comparing the treated mice with the vehicle treated control group.

[2] = test system: hair loss associated with a dermal fungal infection; assay: Horse with "summer itch" hair loss treated with a composition including CSA-44; type: in vivo
Text: A treatment composition including CSA-44 was applied to a horse having a “summer itch” condition associated with a dermal fungal infection. […] As shown, the subject horse had several patches of visible hair loss. […] As shown, hair had regrown to completely fill in the previous patches and the regrown hair was thick and full. Typical time for hair to grow back on a horse following treatment of such a fungal infection is approximately 28 days. The CSA-based treatment therefore regenerated hair growth 1.56 times faster than a conventional treatment.

[3] = 0.5% CSA-44, topical, once daily for 3 weeks
[4] = 2% CSA-44, topical, once every other day for 3 weeks

CCCCCCCCOC(=O)CC[C@@H](C)[C@H]1CC[C@H]2[C@@H]3[C@H](OC(=O)CCN)C[C@@H]4C[C@H](OC(=O)CCN)CC[C@]4(C)[C@H]3C[C@H](OC(=O)CCN)[C@]12C [CSA-44]
Percentage Change in Hair growth [1, 3]: 72%
Hair growth scoring Day 1 [1, 3]: 0.00
Hair growth scoring Day 3 [1, 3]: 0.25
Hair growth scoring Day 7 [1, 3]: 0.50
Hair growth scoring Day 10 [1, 3]: 1.38
Hair growth scoring Day 14 [1, 3]: 2.63
Hair growth scoring Day 17 [1, 3]: 4.88
Percentage Change in Hair growth [1, 4]: 66%
Hair growth scoring Day 1 [1, 4]: 0.00
Hair growth scoring Day 3 [1, 4]: 0.38
Hair growth scoring Day 7 [1, 4]: 0.50
Hair growth scoring Day 10 [1, 4]: 1.50
Hair growth scoring Day 14 [1, 4]: 2.50
Hair growth scoring Day 17 [1, 4]: 4.13
Skin area with black hair compared with control group ([1]; CSA-44 treated groups, end of 3 weeks): larger
Hair growth regeneration speed versus conventional treatment ([2]; 18 days versus typical approximately 28 days): 1.56 times faster
Treatment time after which hair had regrown to completely fill in the previous patches ([2]; horse, composition including CSA-44): 18 days
